Test results reported in article PMC6110851, “An Optimized MicroPET Imaging Method for the Distribution and Synergies of Natural Products” (Frontiers in Pharmacology, 2018).

Tested on: NF-κB
Assay: NF-κB dual luciferase reporter assay in TNF-stimulated HEK 293 T cells
Format: cell-based
Conditions: after decay of radioactivity, HEK 293T stimulated by TNF-α
Procedure: The separation process was repeated five times for use in the activity tests. […] After 48 h, radioactive elements had decayed, the residues were stored at 4°C for anti-inflammatory activity tests ([Dong et al., 2013]; [Qingxin et al., 2016]).
HEK 293 T cells were cultured in standard Dulbecco’s modified Eagle’s medium (DMEM; Hyclone) supplemented with 10% fetal bovine serum (FBS; Biological Industries). The cells were placed in 96-well plates at 37°C in an air-CO2 environment (95/5% v/v). Cells were grown to 80–90% confluence and incubated for 12 h in DMEM without FBS. Transfection (20 h) was performed according to the manufacturer’s instructions. HEK 293 T cells were pretreated with drugs 1 h prior to TNF-stimulation (5 ng/mL) for 6 h. Dex (10^-5mol/L) was used as a positive control for NF-κB inhibition. The NF-κB activity was assayed using dual luciferase reporter assay system (Promega) according to the manufacturer’s instructions ([Qingxin et al., 2016]). Antiinflammatory activity was calculated as the ratio of firefly luciferase activity to Renilla luciferase activity (internal control).

**Q.** `CC1(C)[C@@H](O)CC[C@]2(C)[C@H]3C(=O)C=C4[C@@H]5C[C@@](C)(C(=O)NCCCC[18F])CC[C@]5(C)CC[C@@]4(C)[C@]3(C)CC[C@@H]12` [[^18F]-GA, [^18F]-Glycyrrhetinic acid] was tested. Which “inhibition of NF-κB activity” value (high concentration) did it give?
**A.** The value was “significant inhibition of NF-κB activity”.

**Q.** What about the “anti-inflammatory activity (NF-κB reporter)” value (low concentration) of the same compound?
**A.** Its value is “weak anti-inflammatory activity”.

**Q.** What about the “inhibition of NF-κB activity” value (medium concentration) of the same compound?
**A.** Its value is “significant inhibition of NF-κB activity”.
